Measured values as given in patent US4316839A, “Imidazodiazepine derivatives” (Hoffman-La Roche Inc., priority 1979, dated 1982).
pIC50: −log10 of the molar value.

What was measured:
[1] = biological target: specific benzodiazepine receptors in the cerebral cortex; assay: inhibition of the binding of tritiated diazepam at the specific benzodiazepine receptors in the cerebral cortex; settings: compounds of formula I with A = group (a)
Procedure: The affinity of compounds of formula I to the central benzodiazepine receptors was determined according to the method described in Life Science 20, 2101-2110 (1977) and Science 198, 849-851 (1977). According to this method, the inhibition of the binding of tritiated diazepam at the specific benzodiazepine receptors in the cerebral cortex by test substances is ascertained. The IC50 ("50% inhibiting concentration") is that concentration of the test substance which brings about a 50 percent inhibition of the specific binding of the tritiated diazepam at the specific benzodiazepine receptors in the cerebral cortex.
(§1) In the following Table there are compiled the results which have been obtained with representative compounds of formula I. The ED50 value is given for each compound listed in the Table. The ED50 is the amount of the test compound in mg/kg (p.o.) which counteracts in 50% of the animals the diazepam effect in the foregoing test. Moreover, the Table contains the IC50 value (defined hereinbefore) for all test compounds listed therein as well as details concerning the acute toxicity of certain compounds (LD50 in mg/kg following single oral administration to mice).

[2] = tested on: diazepam effect in the pentetrazole test; assay: pentetrazole test: antagonism of the diazepam effect in mice; assay type: in vivo; settings: Mus musculus, po; mice; diazepam 5 mg/kg i.p. 1 hour and test compound 15 min before pentetrazole 120 mg/kg i.p.
Procedure: This property was used as a basis for the test described hereinafter which permits the determination of compounds which are capable of antagonising the central properties of 1,4-benzodiazepines which have tranquillising activity.
The antagonistic activity of the compounds tested, i.e. their ability to counteract the activity of diazepam in the pentetrazole test, is determined by counting the mice which suffer spasmodic seizures in this test.
as §1

[3] = acute toxicity following single oral administration to mice; settings: mouse, in vivo
From the text: as §1

Schistosoma mansoni [4] = assay: schistosomicidal activity in infected mice; assay type: in vivo; settings: Mouse
Procedure: (§2) Mice and golden hamsters are infected subcutaneously with 60 cercaria of Schistosoma mansoni. Ca 42 days after the infection, they are treated orally with a single dosage of the compound to be tested. 5 Animals are used per test preparation and dosage. 10 Untreated animals are used as controls. The animals are killed and dissected 2 weeks (hamster) or 3 weeks (mice) after the treatment. Worm pairs in mesenteric veins, portal vein and liver are dissected-out, counted and the condition of the worms (living or dead) is registered. A schistosomicidal activity of a test preparation manifests itself in the appearance of dead worms in the vessels of the liver. Dead worms are never found in untreated control animals. The test is evaluated by calculating the percentage of dead worm pairs in the vessels of the liver in infected, treated animals.
(§3) The following representative compounds of formula I were tested in tests described earlier for possible detrimental effects on the schistosomicidal activity of (+)-5-(o-chlorophenyl)-1,3-dihydro-3-methyl-7-nitro-2H-1,4-benzodiazepin-2-one (compound S).

[5] = tested on: central activities of flunitrazepam; assay: EEG of the dorsal hippocampus (theta rhythm) in conscious, curarised rats; antagonism of flunitrazepam; assay type: in vivo
Procedure: Four tests were carried out on conscious, curarised, artifically respirated rats. The bipolar-derived EEG of the dorsal hippocampus served as the measured variable. 10 minutes after the beginning of the derivation flunitrazepam was administered intravenously in a dosage of 0.1 mg/kg. The test substance was likewise administered intravenously in a dosage of 1 mg/kg to one animal 10 minutes and to three animals 30 minutes after the administration of flunitrazepam. The EEGs obtained were analysed continuously in the frequency range according to the rules of the Fourier transformation, whereby each of the computed spectra related to 1 minute.
The normal EEG from the hippocampus of conscious, curarised rats is characterised by a stable theta rhythm of 3.75-4.25 Hertz which remains unchanged at least 3 hours after the beginning of the artificial respiration. Flunitrazepam, in the given dosage, completely suppresses this theta rhythm for about 15 minutes. Thereafter, there appears a rhythm which is slowed down to 2.75-3.25 Hertz, which increases continuously and again attains the normal frequency of 4 Hertz 1 to 1.5 hours after the injection.

[6] = tested on: central activities of diazepam; assay: antagonism of the central activities of diazepam (sleep/waking behaviour) in male albino rats; assay type: in vivo
From the text: Male albino rats (body weight about 165 g) are used for this test.

Schistosoma mansoni [7] = assay: schistosomicidal activity in infected golden hamsters; assay type: in vivo; settings: Hamster; Compound S 75 mg/kg p.o. alone
Procedure: as §2, §3

Schistosoma mansoni [8] = assay: in vitro schistosomicidal activity (motility of isolated worm pairs); assay type: cell-based; settings: 25 μg/ml alone
Procedure: In order to test the in vitro activity of preparations, worm pairs of Schistosoma mansoni are isolated from mice and incubated at 37° C. in a nutrient medium. Test preparations are added in the form of a solution or as a suspension. The motility of the worms is observed under the microscope and registered during the test duration of 120 hours. A schistosomicidal activity of a test preparation manifests itself in the more or less rapid loss of motility of the worms. Control worms in the nutrient medium without the addition of test preparation maintain their normal motility during the entire test duration of 120 hours.
as §3

[9] = 20 mg/kg i.p., then after 30 min diazepam 5 mg/kg i.v.

SMILES: CCOC(=O)c1ncn2c1CN(C)C(=O)c1cc(F)ccc1-2 [Example 1, ethyl 8-fluoro-5,6-dihydro-5-methyl-6-oxo-4H-imidazo[1,5-a][1,4]benzodiazepine-3-carboxylate]
- pIC50 [1]: 5.60
- ED50 [2]: 5.8 mg/kg
- LD50 [3]: > 5000 mg/kg
- Schistosomicidal activity in % (Schistosoma mansoni [4]; 750 mg/kg p.o. alone): 0%

SMILES: CCOC(=O)c1ncn2c1[C@@H]1CCCN1C(=O)c1ccccc1-2 [Example 30, ethyl (S)-11,12,13,13a-tetrahydro-9-oxo-9H-imidazo[1,5-a]pyrrolo[2,1-c][1,4]benzodiazepine-1-carboxylate]
- pIC50 [1]: 5.19
- ED50 [2]: 9.3 mg/kg
- LD50 [3]: 1250 to 2500 mg/kg
- theta rhythm frequency after test substance ([5]; 1 mg/kg i.v., 10 or 30 min after flunitrazepam): 4 Hertz
- normalisation of theta rhythm ([5]; 1 mg/kg i.v., 10 or 30 min after flunitrazepam 0.1 mg/kg i.v.): immediate, long-lasting normalisation of the described theta rhythm at 4 Hertz
- effect on theta rhythm ([5]; 1 mg/kg i.v., 10 min after flunitrazepam): immediately brought about the rhythm suppressed by flunitrazepam, whereby this showed the normal frequency from the outset
- effect on theta rhythm ([5]; 1 mg/kg i.v., 30 min after flunitrazepam): accelerated the already, but slowly, re-appearing rhythm immediately to its normal frequency of 4 Hertz
- antagonism of the central activities of flunitrazepam ([5]; rats, overall finding): antagonises the central activities of the known 1,4-benzodiazepine derivative flunitrazepam

SMILES: CCOC(=O)c1ncn2c1CN(C)C(=O)c1ccccc1-2 [Example 16, ethyl 5,6-dihydro-5-methyl-6-oxo-4H-imidazo[1,5-a][1,4]benzodiazepine-3-carboxylate]
- pIC50 [1]: 5.52
- ED50 [2]: 10.9 mg/kg
- LD50 [3]: > 5000 mg/kg
- waking of diazepam-treated animals ([6]; 5 mg/kg i.v., 5 or 15 min after diazepam 5 mg/kg i.v. or 30 min after diazepam 10 mg/kg i.p.): the animals stand up immediately and move around
- behaviour after test substance alone ([6]; 20 mg/kg i.p.): the animals remain awake and show a normal behaviour
- duration of waking phase [6, 9]: at least 30 minutes
- symptoms after subsequent diazepam [6, 9]: in the first 2 minutes after the injection slight sedation and ataxia, but these symptoms rapidly disappear
- antagonism of the central activities of diazepam ([6]; rats, overall finding): antagonises the central activities of the known 1,4-benzodiazepine derivative diazepam

SMILES: CC1N=C(c2ccccc2Cl)c2cc([N+](=O)[O-])ccc2NC1=O (single isomer, unassigned; (+)) [Compound S, (+)-5-(o-chlorophenyl)-1,3-dihydro-3-methyl-7-nitro-2H-1,4-benzodiazepin-2-one]
- Schistosomicidal activity in % (Schistosoma mansoni [4]; Compound S 75 mg/kg p.o. alone): 99%
- Schistosomicidal activity in % (Schistosoma mansoni [7]): 100%
- Activity (in vitro) (Schistosoma mansoni [8]): a (worm pairs motionless within 15)

SMILES: CN1C(=O)CN=C(c2ccccc2F)c2cc([N+](=O)[O-])ccc21 [flunitrazepam, reference compound]
- complete suppression of theta rhythm, duration ([5]; flunitrazepam 0.1 mg/kg i.v.): about 15 minutes
- frequency of slowed-down rhythm ([5]; flunitrazepam 0.1 mg/kg i.v., after suppression phase): 2.75-3.25 Hertz
- time to again attain normal frequency of 4 Hertz ([5]; flunitrazepam 0.1 mg/kg i.v., after the injection): 1 to 1.5 h
